One data set deals with 4T1. Kind of data set: Cytotoxicity assay (MTT), 4T1. The conditions noted are these: Mus musculus, 4T1; breast cancer cell line; MTT, 48 h; mean ± S.D., 3 experiments; read-out: Cytotoxicity, IC50, 4T1. In kind it is cell-based, mouse. The protocol: (§1) MCF-7 (human breast adenocarcinoma, estrogen-positive) and 4T1 (mouse carcinoma), as breast cancer cell lines, and H9C2 (rat cardiomyoblasts), NIH 3T3 (mouse fibroblasts), HEKa (primary human epidermal keratinocytes), MDCK (Madin-Darby Canine Kidney) cells, and A7r5 (rat vascular smooth muscle cells), as normal cell lines, were obtained from the American Type Culture Collection [ATCC] collection for use in the current study. All cell lines were cultured in Dulbecco's modified Eagle's medium (DMEM) containing 10% fetal bovine serum (FBS) and 4 mM L-glutamine at 37 °C and 5% CO2.
(§2) Cell viability was assessed by the addition of 3-(4,5-dimethylthiazol-2-yl)-2,5-diphenyltetrazolinium bromide (MTT). Briefly, cells were seeded (2–6 × 10^4 cells/ml) in 96-well plates and allowed to attach for 24 h. Solutions of test compounds were prepared and serially diluted to obtain the appropriate concentrations. The cells were treated with the test compounds at different concentrations (0.032–100 µM) and incubated for 48 h at 37 °C and 5% CO2. Then, the culture medium was removed, and medium containing 0.2 mg/ml MTT was added. After 3 h (37 °C, 5% CO2), the MTT-containing medium was removed, and 200 μl of dimethyl sulfoxide (DMSO) was immediately added to each sample. The absorbance was assessed at 540 nm using a Tecan multiplate reader Infinite 1000 (Austria). The half-maximal inhibitory concentration (IC50) of each compound was calculated using Graph Pad Prism 3.0.

The nature of data set [1]: Cytotoxicity assay (MTT), 3T3. The conditions noted are these: mouse, NIH 3T3 cells (fibroblasts), normal cell line, mean ± S.D., 3 experiments. In kind it is cell-based, mouse. The protocol: as §1, §2
Data set [2] can be described thus: Cytotoxicity assay (MTT), HEKa. In kind it is cell-based, human. The conditions noted are these: human, HEKa cells (primary epidermal keratinocytes), normal cell line, mean ± S.D., 3 experiments. The protocol:
as §1, §2

Another data set has as its system permeabilized 4T1 cells. The experiment in a line: High-resolution fluorespirometry (respiration and H2O2 flux). In kind it is cell-based, mouse. The protocol:
High-resolution fluorespirometry was performed using an Oxygraph-2 k system (OROBOROS INSTRUMENTS, Austria). All experiments were performed at 37 °C in MiR05 medium (110 mM sucrose, 60 mM K-lactobionate, 0.5 mM EGTA, 3 mM MgCl2, 20 mM taurine, 10 mM KH2PO4, 20 mM HEPES, pH 7.1 at 30 °C, and 0.1% BSA essentially fatty acid free). The medium was reoxygenated when the oxygen concentration dropped to 80 µM. H2O2 flux was simultaneously measured with respirometry in the O2k-Fluorometer using the H2O2-sensitive probe Ampliflu Red (AmR) as described. The H2O2/O flux ratio [%] was calculated as the H2O2 flux/(0.5 O2 flux).
In permeabilized 4T1 cells, pyruvate + malate (5 and 2 mM) or glutamate + malate (10 and 2 mM) were used to determine complex I (CI)-linked LEAK (L) respiration. ADP was added to a concentration of 5 mM to determine the oxidative phosphorylation-dependent respiration (OXPHOS state). Succinate (10 mM, complex II (CII) substrate) was then added to reconstitute convergent CI&II-linked respiration. Rotenone (0.5 µM, an inhibitor of complex I) and antimycin A (2.5 µM, an inhibitor of complex III) were added to determine the CII-linked OXPHOS capacity and residual oxygen consumption (ROX), respectively. Compound 6 was added to permeabilized cells after the addition of the respective substrates in the OXPHOS state (titration experiment) or in the LEAK state. In addition, compounds 3, 6 and 7 were tested at 1 µM in the OXPHOS coupling protocol in the LEAK state. The OXPHOS coupling efficiency was calculated as: 1-Resp.rateLEAKstate/Resp.rateOXPHOSstate
The substrate-dependent flux control factor was calculated as: 1-Resp.ratebeforeadditionofrespectivesubstrate/Resp.rateafteradditionofrespectivesubstrate

In another data set the test system is DOPC liposomes. Kind of data set: 1H NMR interaction study with DOPC liposomes. The conditions noted are these: 0.4 mM 6, 1.6 mM DOPC, 25 °C. It is filed as binding. The protocol:
Cardiolipin (CL) liposomes for NMR analysis were prepared by the thin-film method followed by sonication and extrusion. […] The obtained lipid thin film was dried in vacuo overnight. Then, the dry lipid film was rehydrated in D18 HEPES buffer (20 mM, pH 7.4, 10% D2O) and gently vortexed, and the samples were sonicated for 30 min in a bath-type sonicator. The obtained sample of liposomes was extruded 21 times through a 100-nm pore polycarbonate filter (Nucleopore Corp., CA). Similarly, liposomes from DOPC only were prepared.
To study the interactions of compound 6 with CL and DOPC liposomes, a stock solution of 6 (2 mM) in D18 HEPES buffer (20 mM, pH 7.4, 10% D2O) was added to CL/DOPC or DOPC liposome dispersions to reach 400:1200:400 µM CL/DOPC/6 solution or 1600:400 µM DOPC/6 solution followed by gentle vortexing for 30 s.
NMR spectra were acquired on a 600‐MHz Bruker Avance NEO spectrometer equipped with a 5 mm QCI-F quadruple resonance pulsed‐field‐gradient cryoprobe. The temperature was calibrated against methanol and set to 25 °C. Chemical shifts were referenced to the water resonance at 4.77 ppm with respect to 4,4-dimethyl-4-silapentane-1-sulfonic acid (DSS). The samples contained […] 6 in 90% H2O and 10% D2O with and without DOPC or CL/DOPC liposomes. The NMR data were processed and analyzed using MestReNova software.

[3] abbreviates: 1 µM, pyruvate-dependent OXPHOS state.
[4] abbreviates: titration, pyruvate + malate and glutamate + malate, OXPHOS.

Molecules are shown by their SMILES.

Results on one molecule are retold here after article PMC7725824, “Fused isoselenazolium salts suppress breast cancer cell growth by dramatic increase in pyruvate-dependent mitochondrial ROS production” (Scientific Reports, 2020).

As for `OC1(c2[se][n+]3ccsc3c2Br)CCCCC1` [Compound 6, 3-bromo-2-(1-hydroxycyclohexyl)[1,2]selenazolo[2,3-b]thiazolium chloride], the IC50 in the data set with 4T1 came to 1700 ± 200 nM. The same molecule yielded a half-inhibitory concentration (IC50) at 48 h in data set [1] of 7400 ± 800 nM. Also, the IC50 at 48 h in data set [2] amounted to 2840 ± 80 nM. In addition, in the data set on permeabilized 4T1 cells (1 µM), the “H2O2 production and H2O2/O ratio in the CI&II-linked OXPHOS state” value was “significant increases”; the OXPHOS coupling efficiency entry was “significant decrease”; the “respiration rate in the OXPHOS state with pyruvate and malate” value is given as “decreased”. Moreover, in the data set on permeabilized 4T1 cells (setting [3]), the “increase in H2O2/O ratio” value turned out to be 2.8 fold and the “increase in H2O2 production” value is 2.3 fold. The “mitochondrial function in the CII-linked OXPHOS state” value with permeabilized 4T1 cells (titration) is recorded as “no significant changes”. For the same molecule, in the data set with permeabilized 4T1 cells (setting [4]), the “H2O2 production with complex I (NADH-linked) substrates” value was “increased” and the “mitochondrial respiration rate with complex I (NADH-linked) substrates” value is given as “inhibited”. Besides, the “aromatic 1H NMR resonances in the presence of DOPC liposomes” value in the data set with DOPC liposomes is “noticeably broadened”.

As usually defined, the IC50 is the midpoint of a concentration-inhibition curve.
